According to US8008292B2, “Condensed benzamide compounds and inhibitors of vanilloid receptor subtype 1 (VR1) activity” (Japan Tobacco Inc., priority 2004, dated 2011):

target: T1, human VR1 (Homo sapiens, UniProt Q8NER1); test: Inhibition of Ca2+ entry in cells caused by proton, in rat glioma (C6BU1) cells stably expressing human VR1 (Fura 2 fluorescence); format: cell-based; conditions: inhibition of proton-induced Ca2+ entry
T1 construct: expressed in transfected cells
How it was run: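 Fura 2-loaded C6BU1 cells in 20 mM MES buffer pH 6.8 with added Ca2+ were preincubated 10 min with compound (final 1 μM to 0.1 nM, 1% DMSO). Proton stimulation brought pH to 5.5. Fluorescence rise was measured, and IC50 was derived from % inhibition versus DMSO control.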

T1 sequence (Q8NER1 whole entry): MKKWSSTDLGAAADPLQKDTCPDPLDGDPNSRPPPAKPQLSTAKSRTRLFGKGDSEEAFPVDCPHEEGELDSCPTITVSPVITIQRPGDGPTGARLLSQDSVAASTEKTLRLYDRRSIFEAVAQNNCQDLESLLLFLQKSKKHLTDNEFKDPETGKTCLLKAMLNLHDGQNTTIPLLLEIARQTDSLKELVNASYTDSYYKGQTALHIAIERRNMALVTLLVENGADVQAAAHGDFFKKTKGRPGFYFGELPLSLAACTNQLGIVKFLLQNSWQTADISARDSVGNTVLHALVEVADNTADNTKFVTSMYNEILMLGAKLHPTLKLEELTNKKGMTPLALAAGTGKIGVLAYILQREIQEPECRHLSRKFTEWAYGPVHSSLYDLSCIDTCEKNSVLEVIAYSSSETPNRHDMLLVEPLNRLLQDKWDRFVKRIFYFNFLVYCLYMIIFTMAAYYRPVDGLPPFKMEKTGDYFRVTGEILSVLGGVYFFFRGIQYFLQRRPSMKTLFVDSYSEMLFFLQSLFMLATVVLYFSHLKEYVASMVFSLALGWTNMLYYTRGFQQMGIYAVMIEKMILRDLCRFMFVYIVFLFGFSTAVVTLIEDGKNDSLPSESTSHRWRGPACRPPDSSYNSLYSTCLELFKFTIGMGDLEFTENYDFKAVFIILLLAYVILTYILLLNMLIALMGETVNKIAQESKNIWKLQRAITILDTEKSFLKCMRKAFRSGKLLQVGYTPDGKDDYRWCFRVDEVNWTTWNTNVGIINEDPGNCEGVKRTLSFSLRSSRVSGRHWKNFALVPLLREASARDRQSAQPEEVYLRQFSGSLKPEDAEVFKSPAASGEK

`CN(C)c1ccc(NC(=O)c2cccc3c2OCCN3c2ncccc2Cl)cc1C(F)(F)F` [Example 1-054] and `COc1ccc(NC(=O)c2cccc3c2OCCN3c2ncccc2Cl)cc1C(F)(F)F` [Example 1-056] cannot be ordered by IC50: under 100 nM for the first, under 100 nM for the second.

`O=C(Nc1ccc(C(O)(C(F)(F)F)C(F)(F)F)cc1)c1cccc2c1OCCN2c1ncc(CO)cc1Cl` [Example 2-37] and `O=C(Nc1ccc(C(F)(F)F)cc1)c1cccc2c1OCCN2c1ncc(CO)cc1Cl` [Example 2-05, N-(4-trifluoromethylphenyl)-4-(3-chloro-5-hydroxymethylpyridin-2-yl)-3,4-dihydro-2H-benzo[1,4]oxazine-8-carboxamide] cannot be ordered by IC50: under 100 nM for the first, under 100 nM for the second.

`CC(C)(C)c1ccc(NC(=O)c2cccc3c2OCCN3c2cnccn2)cc1` [Example 5-1, N-(4-tert-butylphenyl)-4-(pyrazine-2-yl)-3,4-dihydro-2H-benzo[1,4]oxazine-8-carboxamide] and `CC(C)(C)c1ccc(NC(=O)c2cccc3c2OCCN3c2cccnc2)cc1` [Example 1-061] fall in the same range of IC50: 100 to 1000 nM for the first, 100 to 1000 nM for the second.

Compared with `O=C(O)c1cnc(N2CCOc3c(C(=O)Nc4ccc(C(F)(F)F)cc4)cccc32)c(Cl)c1` [Example 1-136], `O=C(O)c1cnc(N2CCOc3c(C(=O)Nc4ccc(OC(F)(F)F)cc4)cccc32)c(Cl)c1` [Example 1-196] is higher in IC50: under 100 nM for the first, 100 to 1000 nM for the second. The first is the more potent here.

`O=C(Nc1ccc(Br)c(F)c1)c1cccc2c1OC[C@H](CO)N2c1ncccc1Cl` [Example 4-36] and `O=C(Nc1ccc(C(F)(F)F)cc1)c1cccc2c1OC[C@H](CO)N2c1ncccc1Cl` [Example 4-04, (S)-4-(3-chloropyridin-2-yl)-3-hydroxylmethyl-N-(4-trifluoromethylphenyl)-3,4-dihydro-2H-benzo[1,4]oxazine-8-carboxamide] cannot be ordered by IC50: under 100 nM for the first, under 100 nM for the second.

First: Cc1ccc(N2CCOc3c(C(=O)N[C@H]4CC[C@H](OC5CCCCC5)CC4)cccc32)nc1 [Example 1-107]
Second: Cc1ccc(N2CCOc3c(C(=O)N[C@H]4CC[C@H](COC(C)C)CC4)cccc32)nc1 [Example 1-183]
The IC50 of the first is lower: under 100 nM for the first, 100 to 1000 nM for the second. The first is the more potent here.

`Cc1cnc(N2c3cccc(C(=O)Nc4ccc(C(F)(F)F)cc4)c3OC[C@@H]2CO)o1` [Example 6-12, (S)-3-hydroxymethyl-4-(5-methyloxazol-2-yl)-N-(4-trifluoromethylphenyl)-3,4-dihydro-2H-benzo[1,4]oxazine-8-carboxamide] and `O=C(Nc1ccc(C(F)(F)F)cc1)c1cccc2c1OC[C@H](CO)N2c1ccc(Cl)cn1` [Example 4-06, (S)-4-(5-chloropyridin-2-yl)-3-hydroxylmethyl-N-(4-trifluoromethylphenyl)-3,4-dihydro-2H-benzo[1,4]oxazine-8-carboxamide] cannot be ordered by IC50: under 100 nM for the first, under 100 nM for the second.

`O=C(Nc1ccc(C(F)(F)F)cc1)c1cccc2c1OCCN2c1ncc(CCO)cc1Cl` [Example 1-154] and `O=C(Nc1ccc(OC(F)(F)F)cc1)c1cccc2c1OCCN2c1ncc(CO)cc1Cl` [Example 2-03, N-(4-trifluoromethoxyphenyl)-4-(3-chloro-5-hydroxymethylpyridin-2-yl)-3,4-dihydro-2H-benzo[1,4]oxazine-8-carboxamide] cannot be ordered by IC50: under 100 nM for the first, under 100 nM for the second.

First: COC(=O)c1ccc(N2CCOc3c(C(=O)Nc4ccc(C(C)(C)C)cc4)cccc32)nc1 [Example 1-132]
Second: CC(C)(C)c1ccc(NC(=O)c2cccc3c2OCCN3c2ccc(N)cn2)cc1 [Example 1-141]
The IC50 of the first is higher: 100 to 1000 nM for the first, under 100 nM for the second. The second is the more potent here.

`COc1cc(NC(=O)c2cccc3c2OCCN3c2ccc(C)cn2)ccc1Cl` [Example 1-083] and `Cc1ccc(N2CCOc3c(C(=O)Nc4ccc(F)c(F)c4)cccc32)nc1` [Example 1-158] cannot be ordered by IC50: under 100 nM for the first, under 100 nM for the second.

`Cc1cnc(N2c3cccc(C(=O)Nc4ccc(OCC(C)C)c(F)c4)c3OC[C@@H]2CO)s1` [Example 6-6] and `Cc1cnc(N2c3cccc(C(=O)Nc4ccc(F)c(C(F)(F)F)c4)c3OC[C@@H]2CO)s1` [Example 6-8] cannot be ordered by IC50: under 100 nM for the first, under 100 nM for the second.

Compared with `O=C(Nc1ccc(F)cc1)c1cccc2c1OCCN2c1ncccc1Cl` [Example 1-026], `O=C(Nc1ccc(Cl)cc1)c1cccc2c1OCCN2c1ncccc1Cl` [Example 1-006] is lower in IC50: 100 to 1000 nM for the first, under 100 nM for the second. The second is the more potent here.

`O=C(Nc1ccc(C(F)(F)F)cn1)c1cccc2c1OCCN2c1ncccc1Cl` [Example 1-029] and `CC(C)COc1ccc(NC(=O)c2cccc3c2OCCN3c2ncccc2Cl)cc1C(F)(F)F` [Example 1-057] cannot be ordered by IC50: under 100 nM for the first, under 100 nM for the second.

`COC1CCN(c2ccc(NC(=O)c3cccc4c3OCCN4c3ccc(C)cn3)cc2F)CC1` [Example 1-169] and `CCOC1CCN(c2ccc(NC(=O)c3cccc4c3OCCN4c3ccc(C)cn3)cc2F)CC1` [Example 1-068] cannot be ordered by IC50: under 100 nM for the first, under 100 nM for the second.

`CNc1ccc(N2CCOc3c(C(=O)Nc4ccc(OC(F)(F)F)cc4)cccc32)nc1` [Example 1-197] and `O=C(Nc1ccc(C(F)(F)F)cc1)c1cccc2c1OCCN2c1ccc(F)cn1` [Example 1-149] cannot be ordered by IC50: under 100 nM for the first, under 100 nM for the second.

`O=C(Nc1ccc(OC(F)(F)F)cc1)c1cccc2c1OC[C@H](CO)N2c1ncccc1Cl` [Example 4-03, (S)-4-(3-chloropyridin-2-yl)-3-hydroxylmethyl-N-(4-trifluoromethoxyphenyl)-3,4-dihydro-2H-benzo[1,4]oxazine-8-carboxamide] and `Cc1cnc(N2c3cccc(C(=O)Nc4ccc(OC(F)(F)F)cc4)c3OC[C@@H]2CO)s1` [Example 6-1, (S)-3-hydroxymethyl-4-(5-methylthiazol-2-yl)-N-(4-trifluoromethoxyphenyl)-3,4-dihydro-2H-benzo[1,4]oxazine-8-carboxamide] cannot be ordered by IC50: under 100 nM for the first, under 100 nM for the second.

`CC(O)c1cnc(N2CCOc3c(C(=O)Nc4ccc(OC(F)(F)F)cc4)cccc32)c(Cl)c1` (single isomer, unassigned; (-)) [Example 2-15, (−)-N-(4-trifluoromethoxyphenyl)-4-{3-chloro-5-(1-hydroxyethyl)pyridin-2-yl}-3,4-dihydro-2H-benzo[1,4]oxazine-8-carboxamide] and `COc1cnc(N2CCOc3c(C(=O)Nc4ccc(OC(F)(F)F)cc4)cccc32)c(Cl)c1` [Example 1-199] cannot be ordered by IC50: under 100 nM for the first, under 100 nM for the second.

First: O=C(Nc1ccc(Cl)cc1)c1cccc2c1OCCN2c1ncc(CO)cc1Cl [Example 2-45]
Second: O=C(Nc1ccc2c(c1)OCO2)c1cccc2c1OCCN2c1ncc(CO)cc1Cl [Example 2-01, N-(benzo[1,3]dioxol-5-yl)-4-(3-chloro-5-hydroxymethylpyridin-2-yl)-3,4-dihydro-2H-benzo[1,4]oxazine-8-carboxamide]
The IC50 of the first is lower: under 100 nM for the first, 100 to 1000 nM for the second.

`CC(C)CNc1ccc(NC(=O)c2cccc3c2OCCN3c2ncccc2Cl)cc1F` [Example 1-104] and `CC(C)COc1cccc(NC(=O)c2cccc3c2OCCN3c2ncccc2Cl)c1` [Example 1-045] cannot be ordered by IC50: under 100 nM for the first, under 100 nM for the second.

`Cc1ccc(N2CCOc3c(C(=O)Nc4ccc(C#N)cc4)cccc32)nc1` [Example 1-062] and `CCCOc1ccc(NC(=O)c2cccc3c2OCCN3c2ccc(C)cn2)cc1` [Example 1-084] cannot be ordered by IC50: under 100 nM for the first, under 100 nM for the second.

Compared with `O=C(Nc1ccc(OC(F)(F)F)cc1)c1cccc2c1OCCN2c1ncccc1O` [Example 1-210], `CC(O)c1cnc(N2CCOc3c(C(=O)Nc4ccc(OC(F)(F)F)cc4)cccc32)c(Cl)c1` (stereo not drawn) [Example 2-48] is lower in IC50: 100 to 1000 nM for the first, under 100 nM for the second. The second is the more potent here.

`Cc1ccc(N2CCOc3c(C(=O)NCCc4ccccc4Cl)cccc32)nc1` [Example 1-127] and `Cc1ccc(N2CCOc3c(C(=O)NCCc4ccc(Cl)cc4)cccc32)nc1` [Example 1-125] cannot be ordered by IC50: under 100 nM for the first, under 100 nM for the second.

`Cc1ccc(N2CCOc3c(C(=O)Nc4ccc(Cl)nc4)cccc32)nc1` [Example 1-093] and `Cc1ccc(N2CCOc3c(C(=O)Nc4ccc(N(CCO)C(C)C)c(F)c4)cccc32)nc1` [Example 1-166] fall in the same range of IC50: 100 to 1000 nM for the first, 100 to 1000 nM for the second.

`O=C(Nc1nc2ccc(F)cc2s1)c1cccc2c1OCCN2c1ncc(CO)cc1Cl` [Example 2-22] and `O=C(Nc1ccc(OC(F)(F)F)c(Cl)c1)c1cccc2c1OCCN2c1ncc(CO)cc1Cl` [Example 2-04, N-(3-chloro-4-trifluoromethoxypheny)-4-(3-chloro-5-hydroxymethylpyridin-2-yl)-3,4-dihydro-2H-benzo[1,4]oxazine-8-carboxamide] cannot be ordered by IC50: under 100 nM for the first, under 100 nM for the second.

`CN1CCN(c2ncccc2Cl)c2cccc(C(=O)Nc3ccc(C(C)(C)C)cc3)c21` [Example 1-004, N-(4-tert-butylphenyl)-1-(3-chloropyridin-2-yl)-4-methyl-1,2,3,4-tetrahydroquinoxaline-5-carboxamide] and `CC(C)c1ccc(NC(=O)c2cccc3c2OCCN3c2ncccc2Cl)cc1` [Example 1-031] cannot be ordered by IC50: under 100 nM for the first, under 100 nM for the second.

First: O=C(O)c1cnc(N2CCOc3c(C(=O)Nc4ccc(OC(F)(F)F)c(Cl)c4)cccc32)c(Cl)c1 [Example 1-195]
Second: Cc1ccc(N2c3cccc(C(=O)Nc4ccc(OC(F)(F)F)c(Cl)c4)c3OC[C@@H]2CO)nc1 [Example 4-31]
The IC50 of the first is higher: 100 to 1000 nM for the first, under 100 nM for the second.

`Cc1nc(N2c3cccc(C(=O)Nc4ccc(OC(F)(F)F)cc4)c3OC[C@@H]2CO)sc1C` [Example 6-13, (S)-4-(4,5-dimethylthiazol-2-yl)-3-hydroxymethyl-N-(4-trifluoromethoxyphenyl)-3,4-dihydro-2H-benzo[1,4]oxazine-8-carboxamide] and `Cc1ccc(N2c3cccc(C(=O)Nc4ccc(C(F)(F)F)cc4Cl)c3OC[C@@H]2CO)nc1` [Example 4-40] cannot be ordered by IC50: under 100 nM for the first, under 100 nM for the second.

Compared with `O=C(Nc1ccc(OC(F)(F)F)cc1)c1cccc2c1OCCN2c1ncccc1OCc1cccnc1` [Example 1-217], `CC(C)COc1ccc(NC(=O)c2cccc3c2OCCN3c2ncccc2Cl)cc1` [Example 1-011] is lower in IC50: 100 to 1000 nM for the first, under 100 nM for the second. The second is the more potent here.

`Cc1ccc(N2CCOc3c(C(=O)Nc4ccc(N5CCC(OC(C)C)CC5)c(F)c4)cccc32)nc1` [Example 1-069] and `Cc1ccc(N2c3cccc(C(=O)Nc4ccc(Cl)c(Cl)c4)c3OC[C@@H]2CO)nc1` [Example 4-32] cannot be ordered by IC50: under 100 nM for the first, under 100 nM for the second.

First: O=C(Nc1ccc(C(F)(F)F)cc1)c1cccc2c1OCCN2c1ccc(OCCO)cn1 [Example 1-153]
Second: NC(=O)[C@H]1COc2c(C(=O)Nc3ccc(C(F)(F)F)cc3)cccc2N1c1ncccc1Cl [Example 1-233]
The IC50 of the first is higher: 100 to 1000 nM for the first, under 100 nM for the second. The second is the more potent here.
